Source: paper PMC9412414, “A Study on Repositioning Nalidixic Acid via Lanthanide Complexation: Synthesis, Characterization, Cytotoxicity and DNA/Protein Binding Studies” (Pharmaceuticals, 2022)
Read-outs that look alike come from different tables or passages of the source.

Assays:
apotransferrin (apo-Tf) = molecular target: T1, apotransferrin (apo-Tf) (Homo sapiens, UniProt P02787); assay: Apo-Tf fluorescence quenching binding study; settings: for fa (fraction of fluorophore accessible to the quencher), Apo-Tf / Ksv* (Stern–Volmer quenching constant), Apo-Tf: compound 0–8 µM; for Ksv* (Stern–Volmer quenching constant), Apo-Tf: Tris-HCl pH 7.4, 298 K; for Kq (bimolecular quenching constant), Apo-Tf: from Ksv* with τ0 = 10^−8 s
T1 construct: purchased Sigma-Aldrich Chemical Co. (Schnelldorf, Germany)
Description: (§1) Using a Jasco FP 6500 spectrofluorometer (Jasco, Tokyo, Japan) and quartz cells with a 1 cm path length, the fluorescence spectra of HSA and apo-Tf were recorded in the presence and absence of the examined substances. The 2.5 mL samples containing 2.5 µM HSA or 1 µM apo-Tf were titrated by adding 5 µL of the tested substance at a time, a volume that corresponded to a 1 µM increase in concentration. The concentration range used for these experiments varied from 0 to 8 µM. The relevant spectra were collected in the emission domains of 300–500 nm (HSA) and 305–500 nm (apo-Tf) after 3 min of continuous stirring at room temperature, using excitation wavelengths of 280 nm (HSA) and 295 nm (apo-Tf).
(§2) Experiments were conducted in a pH = 7.4 Tris-HCl buffer (5 mM Tris-HCl/50 mM NaCl for HSA and 5 mM Tris-HCl/50 mM NaCl/25 mM NaHCO3 for apo-Tf).
(§3) The following modified Stern–Volmer equation has been used to calculate the Stern–Volmer constant, which will be denoted as KSV* in order to differentiate it from the Stern–Volmer constant calculated for the DNA binding experiments:(5) F0/F0−F=1/faKsv*[Q]+1/fa where F0 and F are the fluorescence intensities in the absence and presence of the tested compounds, fa is the fraction of fluorophore accessible to the quencher (the tested compounds), [Q] is the quencher concentration, and KSV* (M^−1) is the Stern–Volmer constant; the plot of F0/(F0 − F) against 1/[Q] yields KSV as the slope and fa as the y intercept.
(§4) Subsequently, the bimolecular quenching rate constant was obtained by using Equation (6):(6) Ksv^*=Kqτ0
(§5) Kq (M^−1·s^−1) is the bimolecular quenching rate constant and τ0 is the fluorophore’s lifespan in the absence of the investigated chemicals (10^−8 s). The value of Kq can be used to assess whether the quenching phenomena have an underlying static or dynamic mechanism.
(§6) Using the following equation, the affinity constant (Ka) and the number of binding sites (n) have been calculated: (7) lgF0−F/F=lgKa+nlg[Q]
(§7) The binding affinity, Kd, can be calculated using the quadratic function below:(8) F0−F/F0−Fb=[P]t+[Q]+Kd−([P]t+[Q]+Kd)^2−4[P]t[Q]/2[P]t where F and F0 are the fluorescence intensities of the protein in the presence and absence of the quencher, respectively, Fb is the fluorescence of a fully bound protein–quencher, [P]t is the total concentration of the protein, and [Q] is the concentration of the added quencher. Each binding isotherm was plotted against the total quencher concentration in solution as a function of bound to free protein (F/F0).
(§8) The isotherms were then fitted using the nonlinear regression function below:(9) F/F0= F1+(F2−F1)Kdn/Kdn+[Q]^n where n represents the Hill coefficient, F1 and F2 are the horizontal and vertical asymptotes, respectively. The Kd in Equation (9) is derived from the quadratic binding function (Equation (8)).
(§9) Data were collected in triplicate, averaged, and expressed as mean value ± standard deviation (SD). All graph fitting models were defined and built using OriginPro® 2018.

[1] = molecular target: T2, human serum albumin (HSA) (Homo sapiens, UniProt P02768); assay: HSA fluorescence quenching binding study; settings: for fa (fraction of fluorophore accessible to the quencher), HSA / Ksv* (Stern–Volmer quenching constant), HSA: compound 0–8 µM; for Ksv* (Stern–Volmer quenching constant), HSA: Tris-HCl pH 7.4, 298 K; for Kq (bimolecular quenching constant), HSA: from Ksv* with τ0 = 10^−8 s
T2 construct: purchased Sigma-Aldrich Chemical Co. (Schnelldorf, Germany)
Description: as §1, §2, §3, §4, §5, §6, §7, §8, §9

EB–DNA system (CT-DNA) = assay: Competitive binding assay with ethidium bromide (EB) through fluorescence spectroscopy; design: species or system calf; settings: EB 2 µM, CT-DNA 10 µM, compound 0–40 µM
Description: The fluorescence spectra were recorded using 1.6 mL samples containing 10 µM CT-DNA, 2 µM EB, and increasing amounts (0–40 µM with an increment of 5 µM) of tested compounds; the samples were prepared by keeping the components in contact for 10 min at room temperature, under continuous stirring and in the dark. The excitation wavelength was 500 nm, and the spectra were recorded between the wavelengths of 520 and 800 nm. A Jasco FP 6500 fluorometer and quartz cells with a 1 cm route length were employed. The classical Stern–Volmer equation (Equation (3)) was used to interpret the obtained data:(3) F0/F=1+KSV·[Q] F0 and F are the fluorescence intensities of the EB–DNA samples in the absence and presence of the tested compounds, respectively; KSV is the Stern–Volmer constant, which was computed as the slope from the plot of F0/F vs. [Q], where [Q] is the chemical concentration.
The binding ratio was plotted against the logarithm of the concentration in comparison with a control sample exposed solely to DMSO. (4) y=A1+(A2−A1)×x^n/K50^n+x^n
For fitting data points, the modified Hill function with offset (Origin®) was used: where y represents the binding ratio (F/F0), x represents the concentration, A1 represents the minimum of y values, A2 represents the maximum of y values, K50 represents the concentration corresponding to 50% binding or the half maximum binding constant, and n represents the Hill coefficient.

[2] = system: HUVEC (human umbilical vein endothelial cells); assay: MTS cytotoxicity assay, HUVEC normal cell line; format: cell-based; settings: 24 h of incubation
Description: (§10) LoVo, MDA-MB-231 and HUVEC human cell lines were purchased from American Type Culture Collection (ATCC). Cells were routinely maintained in culture either in culture flasks or seeded in plates, using Dulbecco’s modified Eagle medium/nutrient mixture F-12 (DMEM:F12) medium supplemented with […], 10% fetal calf serum (Sigma Aldrich, St. Louis, MO, USA), 100 units/mL penicillin, 100 μg/mL streptomycin and incubated at 37 °C in 5% CO2 humidified atmosphere.
(§11) Cytotoxicity studies were performed in 96-well microtiter plates with flat bottoms (Falcon, Teterboro, NJ, USA) using the CellTiter 96 Aqueous One Solution Cell Proliferation Assay (Promega, Madison, WI, USA), an MTS-based colorimetric assay. Metabolically active cells have the ability to reduce MTS [3-(4,5-dimethylthiazol-2-yl)-5-(3-carboxymethoxyphenyl)-2-(4-sulfophenyl)-2H-tetrazolium, inner salt], a yellow tetrazolium salt, to a colored formazan that is soluble in the culture medium. Briefly, 15 × 10^3 cells per well were cultured in 100 µL culture medium. After 24 h, adherent cells were treated with different concentrations of the studied compounds, as well as adriamycin (Adr) and cisplatin (Cis-Pt), used as positive controls for 24 h and 48 h, respectively. Each well was then filled with 20 µL of reagent containing MTS and PES (phenazine ethosulfate, a cationic dye with excellent chemical stability that binds to MTS and produces a stable solution). The resulting formazan was determined using a Tecan GENios Spectrophotometer (Tecan US, Durham, NC, USA) by measuring the absorbance at λ = 492 nm after incubation for 4 h at 37 °C with moderate agitation every 15 min. The cytotoxicity tests were performed in triplicate, with results reported as mean values with standard deviations (SD). The cytotoxicity of DMSO was also investigated under the same conditions, and no harmful effect was found at doses less than 1%.
(§12) Data were expressed as cell viability by comparing with untreated cells considered 100% viable, using the following formula:(1) Cell viability (%)=absorbance of treated cells−absorbance of culture medium/absorbance of untreated cells−absorbance of culture medium

[3] = system: LoVo (human colorectal adenocarcinoma) cell line; assay: MTS cytotoxicity assay, LoVo cell line; format: cell-based; settings: 48 h of incubation
Description: as §10, §11, §12

[4] = apo-Tf 1 µM, 298 K, read-out: Kd (dissociation constant), Apo-Tf
[5] = HSA 2.5 µM, 298 K, read-out: Kd (dissociation constant), HSA

T2 sequence (P02768 25-609): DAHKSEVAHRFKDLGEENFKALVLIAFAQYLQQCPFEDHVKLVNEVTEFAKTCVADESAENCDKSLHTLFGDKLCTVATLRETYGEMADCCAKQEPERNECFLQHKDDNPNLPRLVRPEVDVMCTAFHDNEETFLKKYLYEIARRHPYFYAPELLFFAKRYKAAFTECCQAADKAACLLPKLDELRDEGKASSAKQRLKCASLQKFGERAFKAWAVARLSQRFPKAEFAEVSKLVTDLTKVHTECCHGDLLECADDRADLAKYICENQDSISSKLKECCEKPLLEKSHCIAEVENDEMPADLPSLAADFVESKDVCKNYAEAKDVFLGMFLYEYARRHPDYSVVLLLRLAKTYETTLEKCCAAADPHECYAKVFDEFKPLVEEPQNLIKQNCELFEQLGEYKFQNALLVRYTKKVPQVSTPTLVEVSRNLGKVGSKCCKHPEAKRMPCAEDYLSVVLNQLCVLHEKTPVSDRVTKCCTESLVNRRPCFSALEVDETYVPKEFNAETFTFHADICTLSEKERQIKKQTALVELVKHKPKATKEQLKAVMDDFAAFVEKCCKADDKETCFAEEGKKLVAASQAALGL
T1 sequence (P02787 20-698): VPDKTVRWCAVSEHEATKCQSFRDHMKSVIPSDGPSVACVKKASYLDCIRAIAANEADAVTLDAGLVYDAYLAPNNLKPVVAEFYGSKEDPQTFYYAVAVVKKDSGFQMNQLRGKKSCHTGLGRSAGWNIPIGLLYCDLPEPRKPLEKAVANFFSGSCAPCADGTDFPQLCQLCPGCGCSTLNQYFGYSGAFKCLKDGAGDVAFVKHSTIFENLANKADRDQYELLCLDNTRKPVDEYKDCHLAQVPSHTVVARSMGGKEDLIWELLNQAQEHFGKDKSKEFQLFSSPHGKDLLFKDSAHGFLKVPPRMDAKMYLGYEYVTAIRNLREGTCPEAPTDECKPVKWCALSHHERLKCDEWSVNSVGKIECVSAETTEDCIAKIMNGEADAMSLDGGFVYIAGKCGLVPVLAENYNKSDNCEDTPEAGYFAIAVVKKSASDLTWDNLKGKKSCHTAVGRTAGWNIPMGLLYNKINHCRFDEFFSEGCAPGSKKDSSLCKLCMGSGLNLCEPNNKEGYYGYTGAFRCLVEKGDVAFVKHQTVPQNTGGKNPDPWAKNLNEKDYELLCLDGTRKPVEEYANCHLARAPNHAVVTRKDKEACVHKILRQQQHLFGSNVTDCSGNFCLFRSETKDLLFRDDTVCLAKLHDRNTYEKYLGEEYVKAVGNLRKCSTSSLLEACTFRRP

For `CCn1cc(C(=O)O)c(=O)c2ccc(C)nc21` [Nalidixic acid], the “n1 (Number of Binding Sites), Apo-Tf” value (apotransferrin (apo-Tf); apo-Tf 1 µM, 298 K) was 0.79 ± 0.02, the “n2 (Hill Coefficient), Apo-Tf” value (apotransferrin (apo-Tf); apo-Tf 1 µM, 298 K) was 1.55 ± 0.37 and the Kd (apotransferrin (apo-Tf); apo-Tf 1 µM, 298 K, read-out: Ka (association binding constant), Apo-Tf) was 323 µM. For the same compound, the Kd (apotransferrin (apo-Tf); [4]) was 6.55 ± 2.11 µM, the “fa (fraction of fluorophore accessible to the quencher), Apo-Tf” value (apotransferrin (apo-Tf); apo-Tf 1 µM, 298 K) was 0.48 ± 0.03 and the “Ksv* (Stern–Volmer quenching constant), Apo-Tf” value (apotransferrin (apo-Tf); apo-Tf 1 µM) was “(1.02 ± 0.09) × 10^5 M^−1”. For the same compound, the “Kq (bimolecular quenching constant), Apo-Tf” value (apotransferrin (apo-Tf); 298 K) was 1.02e+13 M⁻¹ s⁻¹, the “n1 (Number of Binding Sites), HSA” value ([1]; HSA 2.5 µM, 298 K) was 1.03 ± 0.01 and the “n2 (Hill Coefficient), HSA” value ([1]; HSA 2.5 µM, 298 K) was 1.33 ± 0.29. For the same compound, the Kd ([1]; HSA 2.5 µM, 298 K, read-out: Ka (association binding constant), HSA) was 4.57 µM, the Kd [1, 5] was 5.69 ± 1.44 µM and the “fa (fraction of fluorophore accessible to the quencher), HSA” value ([1]; HSA 2.5 µM, 298 K) was 1.06 ± 0.02. For the same compound, the “Ksv* (Stern–Volmer quenching constant), HSA” value ([1]; HSA 2.5 µM) was “(1.25 ± 0.06) × 10^5 M^−1”, the “Kq (bimolecular quenching constant), HSA” value ([1]; 298 K) was 1.25e+13 M⁻¹ s⁻¹ and the “EB Displacement Assay K50 (half maximum binding constant)” value (EB–DNA system (CT-DNA)) was 50.41 ± 9.60 µM. The “KSV, Stern–Volmer quenching constant (EB–DNA)” value (EB–DNA system (CT-DNA)) was 9.87 ± 0.11 M^−1 (×10^3), the IC50 ([2]; Homo sapiens) was over 200 µM and the “IC50 (μM) LoVo” value [3] was “not toxic”. It also gave an IC50 ([3]; Homo sapiens) of over 200 µM.

With Eu(C12H11N2O3)3(H2O)2·2.5H2O [Eu(nal)3] the “Ka (association binding constant), Apo-Tf” value (apotransferrin (apo-Tf); apo-Tf 1 µM, 298 K) was “(2.25 ± 1.01) × 10^4 M^−1”, the “n1 (Number of Binding Sites), Apo-Tf” value (apotransferrin (apo-Tf); apo-Tf 1 µM, 298 K) was 0.84 ± 0.03 and the “n2 (Hill Coefficient), Apo-Tf” value (apotransferrin (apo-Tf); apo-Tf 1 µM, 298 K) was 1.58 ± 0.23. The Kd (apotransferrin (apo-Tf); [4]) was 3.85 ± 0.29 µM, the “fa (fraction of fluorophore accessible to the quencher), Apo-Tf” value (apotransferrin (apo-Tf); apo-Tf 1 µM, 298 K) was 0.80 ± 0.02 and the “Ksv* (Stern–Volmer quenching constant), Apo-Tf” value (apotransferrin (apo-Tf); apo-Tf 1 µM) was “(2.21 ± 0.13) × 10^5 M^−1”. For the same compound, the “quenching effect on apo-Tf fluorescence peak” value (apotransferrin (apo-Tf); apo-Tf 1 µM, compound up to 8 µM) was 48%, the “Kq (bimolecular quenching constant), Apo-Tf” value (apotransferrin (apo-Tf); 298 K) was 2.21e+13 M⁻¹ s⁻¹ and the “Ka (association binding constant), HSA” value ([1]; HSA 2.5 µM, 298 K) was “(21.59 ± 2.04) × 10^5 M^−1”. For the same compound, the “n1 (Number of Binding Sites), HSA” value ([1]; HSA 2.5 µM, 298 K) was 1.13 ± 0.00, the “n2 (Hill Coefficient), HSA” value ([1]; HSA 2.5 µM, 298 K) was 1.17 ± 0.27 and the Kd [1, 5] was 2.67 ± 0.21 µM. The “fa (fraction of fluorophore accessible to the quencher), HSA” value ([1]; HSA 2.5 µM, 298 K) was 1.13 ± 0.01, the “Ksv* (Stern–Volmer quenching constant), HSA” value ([1]; HSA 2.5 µM) was “(2.89 ± 0.11) × 10^5 M^−1” and the “Kq (bimolecular quenching constant), HSA” value ([1]; 298 K) was 2.89e+13 M⁻¹ s⁻¹. For the same compound, the “EB Displacement Assay K50 (half maximum binding constant)” value (EB–DNA system (CT-DNA)) was 30.96 ± 10.85 µM, the “KSV, Stern–Volmer quenching constant (EB–DNA)” value (EB–DNA system (CT-DNA)) was 9.62 ± 0.10 M^−1 (×10^3) and the IC50 [2] was over 200 µM. It also gave an IC50 [3] of 26.9 ± 5.72 µM.
